Laboratory results from ChEMBL document CHEMBL1147578, “Design, synthesis, and SAR of anthranilamide-based factor Xa inhibitors with improved functional activity” (Bioorg Med Chem Lett, 2004).

What was measured:
Coagulation factor X [1] = target: T1, Coagulation factor X (Homo sapiens, UniProt P00742); test: In vitro inhibitory activity against Coagulation factor X
Homo sapiens = species: Homo sapiens; test: Concentration required to double the lag time of maximum thrombin generation in human plasma-based thrombin generation assay; assay type: functional
[2] = target: Tissue-type plasminogen activator (Homo sapiens, UniProt P00750); test: Inhibitory activity against tissue type plasminogen activator.
[3] = Oral bioavailability in rat (dose 6 mg/kg); assay type: ADME, organism-based; conditions: in vivo
Prothrombin = Prothrombin (Homo sapiens, UniProt P00734); test: Inhibitory activity against thrombin.
Serine protease 1 = Serine protease 1 (Homo sapiens, UniProt P07477); test: Inhibitory activity against trypsin.
Coagulation factor X [4] = target: T1, Coagulation factor X; test: In vitro inhibitory activity against coagulation factor X.
Plasma kallikrein = Plasma kallikrein (Homo sapiens, UniProt P03952); test: Inhibitory activity against kallikrein
[5] = target: Vitamin K-dependent protein C (Homo sapiens, UniProt P04070); test: Inhibitory activity against activated protein C
Plasminogen = Plasminogen (Homo sapiens, UniProt P00747); test: Inhibitory activity against plasmin.
Rattus norvegicus [6] = species: Rattus norvegicus; test: Effective dose required for antithrombotic activity in rat vena cava stasis model; assay type: functional
[7] = Oral bioavailability in dog; assay type: ADME, organism-based, Canis lupus familiaris; conditions: in vivo
Coagulation factor X [8] = target: T1, Coagulation factor X; test: Inhibitory activity against Coagulation factor X
Oryctolagus cuniculus [9] = species: Oryctolagus cuniculus; test: Percent inhibition of thrombus formation in rabbit deep vein thrombosis at 0.25 uM; assay type: functional
Oryctolagus cuniculus [10] = species: Oryctolagus cuniculus; test: Percent inhibition of thrombus formation in rabbit deep vein thrombosis at 0.83 uM; assay type: functional
[11] = Half life after intravenous administration was determined in rats at 0.4 mg/kg; conditions: rat, in vivo
[12] = Plasma clearance after intravenous administration of 0.4 mg/kg of dose in rats was determined; assay type: ADME, organism-based; design: dose 0.4 mg/kg, route intravenous; conditions: rat
Rattus norvegicus [13] = test: Volume of distribution after intravenous administration of 0.4 mg/kg of dose in rats was determined; conditions: in vivo
[14] = Oral bioavailability in rats at 6 mg/kg; assay type: ADME, organism-based; conditions: rat, in vivo

Chain of Plasminogen (P00747 97-580 limits assumed): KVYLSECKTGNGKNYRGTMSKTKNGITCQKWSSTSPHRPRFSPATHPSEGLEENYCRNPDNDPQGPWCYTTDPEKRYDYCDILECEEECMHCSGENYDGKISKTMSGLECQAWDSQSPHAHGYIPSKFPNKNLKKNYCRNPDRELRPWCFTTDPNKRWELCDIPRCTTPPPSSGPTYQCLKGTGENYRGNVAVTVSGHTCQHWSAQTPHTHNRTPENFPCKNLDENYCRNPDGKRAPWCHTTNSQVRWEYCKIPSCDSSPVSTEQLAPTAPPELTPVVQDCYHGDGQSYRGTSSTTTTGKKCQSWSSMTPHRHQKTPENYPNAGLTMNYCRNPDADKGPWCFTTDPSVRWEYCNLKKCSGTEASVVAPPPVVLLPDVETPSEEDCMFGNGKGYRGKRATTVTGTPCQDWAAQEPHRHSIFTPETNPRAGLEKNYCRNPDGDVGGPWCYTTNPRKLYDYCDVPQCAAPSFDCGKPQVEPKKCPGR
Chain of Plasminogen (P00747 581-810 limits assumed): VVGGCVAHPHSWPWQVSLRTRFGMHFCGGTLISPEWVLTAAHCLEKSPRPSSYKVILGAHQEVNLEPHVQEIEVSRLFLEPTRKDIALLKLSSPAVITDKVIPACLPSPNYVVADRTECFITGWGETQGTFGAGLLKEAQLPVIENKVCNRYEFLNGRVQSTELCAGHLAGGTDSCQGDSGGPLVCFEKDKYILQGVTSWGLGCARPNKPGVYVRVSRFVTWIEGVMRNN
Chain of Vitamin K-dependent protein C (P04070 43-197 limits assumed): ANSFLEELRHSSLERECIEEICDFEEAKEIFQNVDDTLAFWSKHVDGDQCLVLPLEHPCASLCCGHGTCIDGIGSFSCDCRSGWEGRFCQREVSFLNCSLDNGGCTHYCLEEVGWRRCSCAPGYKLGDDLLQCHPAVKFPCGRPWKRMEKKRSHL
Chain of Vitamin K-dependent protein C (P04070 212-461 limits assumed): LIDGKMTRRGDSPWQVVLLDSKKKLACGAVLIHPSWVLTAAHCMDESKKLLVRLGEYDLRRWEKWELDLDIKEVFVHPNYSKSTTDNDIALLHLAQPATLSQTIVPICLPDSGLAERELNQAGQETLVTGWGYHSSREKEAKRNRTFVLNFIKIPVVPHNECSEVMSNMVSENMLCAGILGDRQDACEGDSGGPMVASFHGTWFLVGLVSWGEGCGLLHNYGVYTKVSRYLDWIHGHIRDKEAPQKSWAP
Chain of Plasma kallikrein (P03952 20-390 limits assumed): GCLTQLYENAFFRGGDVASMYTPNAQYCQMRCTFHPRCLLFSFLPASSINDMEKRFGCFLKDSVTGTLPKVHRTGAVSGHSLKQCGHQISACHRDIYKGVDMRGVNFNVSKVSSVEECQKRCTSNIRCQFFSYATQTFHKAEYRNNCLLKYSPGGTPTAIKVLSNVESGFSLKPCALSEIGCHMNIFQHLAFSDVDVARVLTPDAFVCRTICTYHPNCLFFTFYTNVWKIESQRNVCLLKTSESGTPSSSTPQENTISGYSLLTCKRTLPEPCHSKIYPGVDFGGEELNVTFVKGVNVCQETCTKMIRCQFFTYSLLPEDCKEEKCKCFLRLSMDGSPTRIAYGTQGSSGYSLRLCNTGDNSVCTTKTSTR
Chain of Plasma kallikrein (P03952 391-638 limits assumed): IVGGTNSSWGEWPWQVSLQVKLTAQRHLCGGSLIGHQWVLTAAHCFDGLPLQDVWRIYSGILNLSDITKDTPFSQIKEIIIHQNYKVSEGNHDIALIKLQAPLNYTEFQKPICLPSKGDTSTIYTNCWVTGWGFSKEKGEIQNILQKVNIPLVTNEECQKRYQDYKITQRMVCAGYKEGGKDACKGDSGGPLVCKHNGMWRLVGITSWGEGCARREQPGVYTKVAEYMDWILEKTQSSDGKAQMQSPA
Chain of Serine protease 1 (P07477 whole entry): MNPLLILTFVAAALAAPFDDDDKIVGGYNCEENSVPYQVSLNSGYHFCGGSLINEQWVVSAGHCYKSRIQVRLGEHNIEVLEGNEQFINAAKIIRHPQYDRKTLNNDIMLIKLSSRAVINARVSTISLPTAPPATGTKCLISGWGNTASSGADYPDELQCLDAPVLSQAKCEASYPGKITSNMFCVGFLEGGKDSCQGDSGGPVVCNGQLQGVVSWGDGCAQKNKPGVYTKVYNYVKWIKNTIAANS
T1 sequence (P00742 41-179 limits assumed): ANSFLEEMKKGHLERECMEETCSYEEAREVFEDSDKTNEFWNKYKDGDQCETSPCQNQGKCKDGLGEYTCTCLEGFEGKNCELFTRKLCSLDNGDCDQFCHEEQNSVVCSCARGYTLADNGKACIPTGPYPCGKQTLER
T1 sequence (P00742 235-488 limits assumed): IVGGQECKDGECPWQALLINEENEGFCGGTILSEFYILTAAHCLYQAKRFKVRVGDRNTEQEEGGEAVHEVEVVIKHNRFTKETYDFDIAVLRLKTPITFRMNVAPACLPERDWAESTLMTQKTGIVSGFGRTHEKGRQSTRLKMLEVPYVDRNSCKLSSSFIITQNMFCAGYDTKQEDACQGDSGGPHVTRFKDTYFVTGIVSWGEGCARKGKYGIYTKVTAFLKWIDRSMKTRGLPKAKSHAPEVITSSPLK
Chain of Tissue-type plasminogen activator (P00750 whole entry): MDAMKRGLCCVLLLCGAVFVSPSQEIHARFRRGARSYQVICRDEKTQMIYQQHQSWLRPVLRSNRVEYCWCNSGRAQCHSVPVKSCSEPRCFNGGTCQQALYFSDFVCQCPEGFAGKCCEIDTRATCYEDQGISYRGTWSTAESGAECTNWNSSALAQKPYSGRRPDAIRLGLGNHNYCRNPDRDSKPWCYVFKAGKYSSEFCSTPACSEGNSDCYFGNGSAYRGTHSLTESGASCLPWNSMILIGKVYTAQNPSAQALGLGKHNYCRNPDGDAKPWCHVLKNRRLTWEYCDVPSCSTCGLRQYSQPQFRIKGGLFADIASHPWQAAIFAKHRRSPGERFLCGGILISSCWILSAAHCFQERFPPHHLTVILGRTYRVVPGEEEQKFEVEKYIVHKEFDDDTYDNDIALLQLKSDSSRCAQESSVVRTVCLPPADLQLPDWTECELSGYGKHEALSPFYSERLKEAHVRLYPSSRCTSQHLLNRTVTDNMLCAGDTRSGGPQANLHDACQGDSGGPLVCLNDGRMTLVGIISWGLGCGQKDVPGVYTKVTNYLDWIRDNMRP

Structure (SMILES) | Ki (Coagulation factor X [1]) [µM] | IC50 [2] [µM] | bioavailability [3] [%] | IC50 (Prothrombin) [µM] | IC50 (Serine protease 1) [µM] | IC50 (Coagulation factor X [4]) [µM] | IC50 (Plasma kallikrein) [µM] | IC50 [5] [µM] | IC50 (Plasminogen) [µM] | bioavailability [7] [%] | Ki (Coagulation factor X [8]) [µM] | half-life [11] [h] | clearance [12] [mL/min/kg] | Volume of distribution (Rattus norvegicus [13]) [L/kg] | bioavailability [14] [%] | Activity (Homo sapiens) [µM] | ED50 (Rattus norvegicus [6]) [µM] | Inhibition (Oryctolagus cuniculus [9]) [%] | Inhibition (Oryctolagus cuniculus [10]) [%]
N=C1NCCN1Cc1ccc(C(=O)Nc2ccc(Cl)cc2C(=O)Nc2ccc(Cl)cn2)cc1 | 0.0005 | > 11 | < 1 | > 11 | > 11 | 0.0015 | 0.21 | > 11 | > 11 | – | – | – | – | – | – | 0.58 | – | – | –
COc1cc(Cl)cc(C(=O)Nc2ccc(Cl)cn2)c1NC(=O)c1scc(CN(C)C2=NCCO2)c1Cl | – | – | – | – | – | – | – | – | – | 40 | – | – | – | – | – | – | 0.8 | – | –
C[N+](C)(C)Cc1ccc(C(=O)Nc2ccc(Cl)cc2C(=O)Nc2ccc(Cl)cn2)cc1 | 0.001 | > 11 | < 1 | > 11 | > 11 | 0.0008 | 0.13 | > 11 | > 11 | – | – | – | – | – | – | 0.3 | – | – | –
CN(C)NCc1ccc(C(=O)Nc2ccc(Cl)cc2C(=O)Nc2ccc(Cl)cn2)cc1 | – | > 11 | 4 | > 11 | > 11 | 0.0009 | 0.64 | > 11 | > 11 | – | 0.0003 | – | – | – | – | 1.5 | – | – | –
N=C1OCCN1Cc1ccc(C(=O)Nc2ccc(Cl)cc2C(=O)Nc2ccc(Cl)cn2)cc1 | – | > 11 | 44 | > 11 | > 11 | – | 0.56 | > 11 | > 11 | – | – | 8.5 | 18.3 | 13.6 | – | 0.56 | – | 25 | 40

The next lines start with results.

Ki (Coagulation factor X [1]) [µM] | IC50 [2] [µM] | bioavailability [3] [%] | IC50 (Prothrombin) [µM] | IC50 (Serine protease 1) [µM] | IC50 (Coagulation factor X [4]) [µM] | IC50 (Plasma kallikrein) [µM] | IC50 [5] [µM] | IC50 (Plasminogen) [µM] | bioavailability [7] [%] | Ki (Coagulation factor X [8]) [µM] | half-life [11] [h] | clearance [12] [mL/min/kg] | Volume of distribution (Rattus norvegicus [13]) [L/kg] | bioavailability [14] [%] | Structure (SMILES) | Activity (Homo sapiens) [µM] | ED50 (Rattus norvegicus [6]) [µM] | Inhibition (Oryctolagus cuniculus [9]) [%] | Inhibition (Oryctolagus cuniculus [10]) [%]
0.0001 | > 11 | < 1 | > 11 | > 11 | 0.001 | 0.38 | > 11 | > 11 | – | – | – | – | – | – | CN(Cc1ccc(C(=O)Nc2ccc(Cl)cc2C(=O)Nc2ccc(Cl)cn2)cc1)C(=N)N | 0.38 | – | – | –
0.0003 | > 11 | < 1 | > 11 | > 11 | 0.0003 | 0.3 | > 11 | > 11 | – | – | – | – | – | – | CN1CCN=C1N(C)Cc1ccc(C(=O)Nc2ccc(Cl)cc2C(=O)Nc2ccc(Cl)cn2)cc1 | 0.3 | – | – | –
– | > 11 | < 1 | > 11 | > 11 | – | 0.5 | > 11 | > 11 | – | – | – | – | – | – | CC(=N)N(C)Cc1ccc(C(=O)Nc2ccc(Cl)cc2C(=O)Nc2ccc(Cl)cn2)cc1 | 0.5 | – | – | –
– | > 11 | – | > 11 | > 11 | – | 0.5 | > 11 | > 11 | – | – | 7.5 | 20.6 | 32.9 | 100 | CN(C)Cc1ccc(C(=O)Nc2ccc(Cl)cc2C(=O)Nc2ccc(Cl)cn2)cc1 | 3.2 | – | – | –
0.0002 | > 11 | – | > 11 | > 11 | 0.0007 | 0.79 | > 11 | > 11 | – | – | – | – | – | – | C/N=C(/N)N(C)Cc1ccc(C(=O)Nc2ccc(Cl)cc2C(=O)Nc2ccc(Cl)cn2)cc1 | 0.79 | – | – | –
